In brackets after ≈: the same amount, converted by molar mass. Read-outs that look alike come from different tables or passages of the source.
Tests used:
Assay in all cases: in vitro antibacterial activity, agar dilution method (MIC)
Type in all cases: cell-based
Micrococcus Luteus = conditions: Micrococcus luteus
Description: (§1) The test medium was Brain Heart Infusion (BHI) agar. The antibacterial agent was dissolved at a concentration of 2,000 ug/mL. Test plates were then prepared, usually 12 two-fold dilutions. After adding the sample to the plates, 10 mL of cooled BHI agar medium was added to each plate. The organisms were grown overnight in BHI broth (Difco) in a 35°-37° C. incubator.
(§2) On the day of testing, the bacterial suspensions were diluted 1:100 in sterile distilled water, except for a few slow-growing organisms (usually Micrococcus and Streptococcus) which were diluted 1:10. The plate was then inoculated with approximately 10^4 organisms. This was incubated in a 35°-37° C. incubator for 20-24 hours. Thereafter, the plates were read to determine the minimum inhibitory concentration (MIC) defined as the lowest concentration of drug yielding no growth on the plate, a slight haze, or sparsely isolated colonies on the inoculum spot as compared to the growth control.

Pseudomonas Aeruginosa = conditions: Pseudomonas aeruginosa, BHI agar, 20-24 hours, read-out: MIC
Description: as §1, §2

Enterococcus Faecium = conditions: Enterococcus faecium, ATCC8043, strain ATCC 8043; BHI agar, 20-24 hours; read-out: MIC
Description: as §1, §2

Haemophilus Influenzae = conditions: Haemophilus influenzae, BHI agar, 20-24 hours
Description: as §1, §2

Klebsiella Pneumoniae = conditions: Klebsiella pneumoniae, ATCC8045, strain ATCC 8045; BHI agar, 20-24 hours; read-out: MIC
Description: as §1, §2

Staphylococcus Aureus = conditions: Staphylococcus aureus
Description: as §1, §2

Enterobacter Aerogenes = conditions: Klebsiella aerogenes, ATCC13048, strain ATCC 13048; BHI agar, 20-24 hours; read-out: MIC
Description: as §1, §2

Streptococcus Agalactiae = conditions: Streptococcus agalactiae, strain CMX 508; BHI agar, 20-24 hours; read-out: MIC
Description: as §1, §2

Streptococcus Bovis = conditions: Streptococcus equinus, strain A5169; BHI agar, 20-24 hours
Description: as §1, §2

Acinetobacter Sp = conditions: Acinetobacter, strain CMX 669; BHI agar, 20-24 hours; read-out: MIC
Description: as §1, §2

Providencia Stuartii = conditions: Providencia stuartii; strain CMX 640; BHI agar, 20-24 hours; read-out: MIC
Description: as §1, §2

Streptococcus Pyogenes = conditions: Streptococcus pyogenes
Description: as §1, §2

[1] = system: Staphylococcus Epidermidis; conditions: Staphylococcus epidermidis, strain 3519; BHI agar, 20-24 hours; read-out: MIC
Description: as §1, §2

Escherichia Coli = conditions: Escherichia coli, BHI agar, 20-24 hours, read-out: MIC
Description: (§3) Compounds 1 to 8 were evaluated for antibacterial activity by the agar dilution method to determine the degree of in vitro susceptibility of aerobic microorganisms to antimicrobial agents. The test medium was Brain Heart Infusion (BHI) agar. The antibacterial agent was dissolved at a concentration of 2,000 ug/mL. Test plates were then prepared, usually 12 two-fold dilutions. After adding the sample to the plates, 10 mL of cooled BHI agar medium was added to each plate. The organisms were grown overnight in BHI broth (Difco) in a 35°-37° C. incubator.
as §2

Pseudomonas Cepacia = conditions: Burkholderia cepacia; strain 296I; BHI agar, 20-24 hours; read-out: MIC
Description: as §3, §2

[2] = ATCC4698, strain ATCC 4698, BHI agar, 20-24 hours, read-out: MIC
[3] = ATCC43095, strain ATCC 43095, read-out: MIC
[4] = NCTC10649, strain NCTC 10649, BHI agar, 20-24 hours, read-out: MIC
[5] = strain 45, BHI agar, 20-24 hours, read-out: MIC
[6] = strain 45 RAR2, BHI agar, 20-24 hours, read-out: MIC
[7] = strain 642A, BHI agar, 20-24 hours, read-out: MIC
[8] = strain A5177, BHI agar, 20-24 hours, read-out: MIC
[9] = strain CMX 553, BHI agar, 20-24 hours, read-out: MIC
[10] = strain 930 CONST, BHI agar, 20-24 hours, read-out: MIC
[11] = strain 2548 INDUC, BHI agar, 20-24 hours, read-out: MIC

CCC1OC(=O)CC(O)C(C)C(OC2OC(C)CC(N(C)C)C2O)C(CC=O)CC(C)C(N(C)C)C=CC2(C)OC2C1C (stereo not shown) [Example 1, [9R]-9-Deoxo-9-N,N-dimethylamino-rosaramicin]
MIC (Micrococcus Luteus; [2]): 0.2 µg/mL (≈ 0.327 µM) | MIC (Micrococcus Luteus; ATCC9341): 0.1 µg/mL (≈ 0.164 µM) | MIC (Pseudomonas Aeruginosa; strain A5007): > 100 µg/mL | MIC (Pseudomonas Aeruginosa; strain BMH10): 50 µg/mL (≈ 81.9 µM) | MIC (Pseudomonas Aeruginosa; strain K799/61): 0.78 µg/mL (≈ 1.28 µM) | MIC (Pseudomonas Aeruginosa; strain K799/WT): 50 µg/mL (≈ 81.9 µM) | MIC (Enterococcus Faecium): 0.39 µg/mL (≈ 0.638 µM) | MIC (Haemophilus Influenzae; ATCC9795, strain ATCC 9795): 1 µg/mL (≈ 1.64 µM) | MIC (Haemophilus Influenzae; ATCC10211, strain ATCC 10211): 1 µg/mL (≈ 1.64 µM) | MIC (Haemophilus Influenzae; ATCC19418, strain ATCC 19418): 1 µg/mL (≈ 1.64 µM) | MIC (Haemophilus Influenzae; [3]): 0.25 µg/mL (≈ 0.409 µM) | MIC (Haemophilus Influenzae; strain 503B): 1 µg/mL (≈ 1.64 µM) | MIC (Haemophilus Influenzae; strain 504): 1 µg/mL (≈ 1.64 µM) | MIC (Haemophilus Influenzae; strain 519A, read-out: MIC): 0.5 µg/mL (≈ 0.819 µM) | MIC (Haemophilus Influenzae; strain 566A, read-out: MIC): 2 µg/mL (≈ 3.27 µM) | MIC (Haemophilus Influenzae; strain 588A): 1 µg/mL (≈ 1.64 µM) | MIC (Haemophilus Influenzae; strain 632A): 1 µg/mL (≈ 1.64 µM) | MIC (Haemophilus Influenzae; strain 667A): 1 µg/mL (≈ 1.64 µM) | MIC (Haemophilus Influenzae; strain 747C): 1 µg/mL (≈ 1.64 µM) | MIC (Haemophilus Influenzae; strain 751, read-out: MIC): 2 µg/mL (≈ 3.27 µM) | MIC (Haemophilus Influenzae; strain 1177, read-out: MIC): 0.06 µg/mL (≈ 0.0982 µM) | MIC (Haemophilus Influenzae; strain 1435, read-out: MIC): 0.5 µg/mL (≈ 0.819 µM) | MIC (Haemophilus Influenzae; strain DILL AMP R): 1 µg/mL (≈ 1.64 µM) | MIC (Haemophilus Influenzae; strain SOL AMP R): 1 µg/mL (≈ 1.64 µM) | MIC (Haemophilus Influenzae; strain SPK AMP R): 1 µg/mL (≈ 1.64 µM) | MIC (Klebsiella Pneumoniae): 12.5 µg/mL (≈ 20.5 µM) | MIC (Staphylococcus Aureus; ATCC6538P): 0.78 µg/mL (≈ 1.28 µM) | MIC (Staphylococcus Aureus; [4]): 0.78 µg/mL (≈ 1.28 µM) | MIC (Staphylococcus Aureus; [5]): 0.78 µg/mL (≈ 1.28 µM) | MIC (Staphylococcus Aureus; [6]): 0.78 µg/mL (≈ 1.28 µM) | MIC (Staphylococcus Aureus; [7]): 0.78 µg/mL (≈ 1.28 µM) | MIC (Staphylococcus Aureus; [8]): 1.56 µg/mL (≈ 2.55 µM) | MIC (Staphylococcus Aureus; [9]): 0.78 µg/mL (≈ 1.28 µM) | MIC (Enterobacter Aerogenes): 6.2 µg/mL (≈ 10.2 µM) | MIC (Streptococcus Agalactiae): 0.1 µg/mL (≈ 0.164 µM) | MIC (Streptococcus Bovis): 0.05 µg/mL (≈ 0.0819 µM) | MIC (Acinetobacter Sp): 1.56 µg/mL (≈ 2.55 µM) | MIC (Providencia Stuartii): > 100 µg/mL | MIC (Streptococcus Pyogenes): 0.05 µg/mL (≈ 0.0819 µM) | MIC (Streptococcus Pyogenes; [10]): > 100 µg/mL | MIC (Streptococcus Pyogenes; [11]): 0.39 µg/mL (≈ 0.638 µM) | MIC [1]: 0.78 µg/mL (≈ 1.28 µM) | MIC (Escherichia Coli; strain DC-2): 3.1 µg/mL (≈ 5.08 µM) | MIC (Escherichia Coli; strain H560): 0.78 µg/mL (≈ 1.28 µM) | MIC (Escherichia Coli; strain JUHL): 6.2 µg/mL (≈ 10.2 µM) | MIC (Escherichia Coli; strain KNK 437): 6.2 µg/mL (≈ 10.2 µM) | MIC (Escherichia Coli; strain SS): 0.1 µg/mL (≈ 0.164 µM) | MIC (Pseudomonas Cepacia): 100 µg/mL (≈ 164 µM)

CC[C@H]1OC(=O)C[C@@H](O)[C@H](C)[C@@H](O[C@@H]2O[C@H](C)C[C@H](N(C)C)[C@H]2O)[C@@H](CC=O)C[C@@H](C)C(=O)/C=C/[C@]2(C)O[C@H]2[C@@H]1C [Rosaramicin, 5-O-(4'-deoxy-mycaminosyl)-12,13-epoxy-23-deoxy-tylonide, reference compound]
MIC (Micrococcus Luteus; [2]): 0.1 µg/mL (≈ 0.172 µM) | MIC (Pseudomonas Aeruginosa; strain A5007): 100 µg/mL (≈ 172 µM) | MIC (Pseudomonas Aeruginosa; strain BMH10): 50 µg/mL (≈ 85.9 µM) | MIC (Pseudomonas Aeruginosa; strain K799/61): 0.78 µg/mL (≈ 1.34 µM) | MIC (Pseudomonas Aeruginosa; strain K799/WT): 25 µg/mL (≈ 43 µM) | MIC (Enterococcus Faecium): 0.39 µg/mL (≈ 0.67 µM) | MIC (Haemophilus Influenzae; ATCC9795, strain ATCC 9795): 1 µg/mL (≈ 1.72 µM) | MIC (Haemophilus Influenzae; ATCC10211, strain ATCC 10211, read-out: MIC): 0.5 µg/mL (≈ 0.859 µM) | MIC (Haemophilus Influenzae; ATCC19418, strain ATCC 19418): 1 µg/mL (≈ 1.72 µM) | MIC (Haemophilus Influenzae; [3]): 0.5 µg/mL (≈ 0.859 µM) | MIC (Haemophilus Influenzae; strain 503B): 1 µg/mL (≈ 1.72 µM) | MIC (Haemophilus Influenzae; strain 504): 1 µg/mL (≈ 1.72 µM) | MIC (Haemophilus Influenzae; strain 519A, read-out: MIC): 0.5 µg/mL (≈ 0.859 µM) | MIC (Haemophilus Influenzae; strain 566A): 1 µg/mL (≈ 1.72 µM) | MIC (Haemophilus Influenzae; strain 588A, read-out: MIC): 0.5 µg/mL (≈ 0.859 µM) | MIC (Haemophilus Influenzae; strain 632A): 1 µg/mL (≈ 1.72 µM) | MIC (Haemophilus Influenzae; strain 667A): 1 µg/mL (≈ 1.72 µM) | MIC (Haemophilus Influenzae; strain 747C, read-out: MIC): 0.5 µg/mL (≈ 0.859 µM) | MIC (Haemophilus Influenzae; strain 751): 1 µg/mL (≈ 1.72 µM) | MIC (Haemophilus Influenzae; strain 1177, read-out: MIC): 0.12 µg/mL (≈ 0.206 µM) | MIC (Haemophilus Influenzae; strain 1435, read-out: MIC): 0.5 µg/mL (≈ 0.859 µM) | MIC (Haemophilus Influenzae; strain DILL AMP R, read-out: MIC): 0.5 µg/mL (≈ 0.859 µM) | MIC (Haemophilus Influenzae; strain SOL AMP R, read-out: MIC): 0.5 µg/mL (≈ 0.859 µM) | MIC (Haemophilus Influenzae; strain SPK AMP R, read-out: MIC): 0.5 µg/mL (≈ 0.859 µM) | MIC (Klebsiella Pneumoniae): 12.5 µg/mL (≈ 21.5 µM) | MIC (Staphylococcus Aureus; ATCC6538P): 0.39 µg/mL (≈ 0.67 µM) | MIC (Staphylococcus Aureus; [4]): 0.39 µg/mL (≈ 0.67 µM) | MIC (Staphylococcus Aureus; [5]): 0.39 µg/mL (≈ 0.67 µM) | MIC (Staphylococcus Aureus; [6]): 0.39 µg/mL (≈ 0.67 µM) | MIC (Staphylococcus Aureus; [7]): 0.39 µg/mL (≈ 0.67 µM) | MIC (Staphylococcus Aureus; [8]): 0.78 µg/mL (≈ 1.34 µM) | MIC (Staphylococcus Aureus; [9]): 0.39 µg/mL (≈ 0.67 µM) | MIC (Enterobacter Aerogenes): 25 µg/mL (≈ 43 µM) | MIC (Streptococcus Agalactiae): 0.2 µg/mL (≈ 0.344 µM) | MIC (Acinetobacter Sp): 12.5 µg/mL (≈ 21.5 µM) | MIC (Providencia Stuartii): 100 µg/mL (≈ 172 µM) | MIC (Streptococcus Pyogenes; [10]): > 100 µg/mL | MIC (Streptococcus Pyogenes; [11]): 0.39 µg/mL (≈ 0.67 µM) | MIC (Streptococcus Pyogenes; strain EES61, BHI agar, 20-24 hours, read-out: MIC): 0.1 µg/mL (≈ 0.172 µM) | MIC [1]: 0.39 µg/mL (≈ 0.67 µM) | MIC (Escherichia Coli; strain DC-2): 12.5 µg/mL (≈ 21.5 µM) | MIC (Escherichia Coli; strain H560): 6.2 µg/mL (≈ 10.7 µM) | MIC (Escherichia Coli; strain JUHL): 12.5 µg/mL (≈ 21.5 µM) | MIC (Escherichia Coli; strain KNK 437): 25 µg/mL (≈ 43 µM) | MIC (Escherichia Coli; strain SS): 0.2 µg/mL (≈ 0.344 µM) | MIC (Pseudomonas Cepacia): 25 µg/mL (≈ 43 µM)

From patent publication US5140014A (Abbott Laboratories, priority 1989, dated 1992)
